Results from patent US5441949A, “Carbapenem antibiotic compounds” (Zeneca Limited, priority 1992, dated 1995).
Structures can show the parent of a compound that is named as a salt.

Key:
[1] = test system: B. fragilis AMP S; assay: antibacterial activity in vitro, agar-dilution MIC, Diagnostic Sensitivity Test, inoculum 10^4 CFU/spot; type: cell-based; conditions: Bacteroides fragilis
[2] = test system: Enterobacter cloacae P99-; assay: as above; type: cell-based
[3] = test system: S. aureus Oxford; assay: as above; type: cell-based; conditions: Staphylococcus aureus
[4] = test system: E. coli DCO; assay: microbe, parasite or virus in culture; conditions: Escherichia coli
Excerpt: The antibacterial activity is described in terms of the minimum inhibitory concentration (MIC) determined by the agar-dilution technique with an inoculum size of 10^4 CFU/spot.

[5] = test system: P. morganii I + 001; assay: antibacterial activity in vitro, agar-dilution MIC, Diagnostic Sensitivity Test, inoculum 10^4 CFU/spot; type: cell-based; conditions: Morganella morganii

C[C@@H](O)[C@H]1C(=O)N2C(C(=O)O)=C(S[C@@H]3CN[C@H](C(=O)Nc4cc(C(=O)O)c5ncccc5c4)C3)[C@H](C)[C@H]12 [Example 1, (1R,5S,6S,8R,2'S,4'S) 2-(2-(8-Carboxyquinol-6-ylcarbamoyl)pyrrolidin-4-ylthio)-6-(1-hydroxyethyl)-1-methylcarbapenem-3-carboxylic Acid Disodium Salt]
MIC [1]: 0.5 µg/mL | MIC [2]: 0.03 µg/mL | MIC [3]: 0.13 µg/mL | MIC [4]: 0.03 µg/mL | MIC [5]: 0.03 µg/mL
